Source: patent publication US8883745B2, “C—glycolipids with enhanced Th-1 profile” (New York University, priority 2006, dated 2014)

Key:
[1] = tested on: IL-12; experiment: IL-12 levels in sera upon i.v. glycolipid administration to BALB/c mice (ELISA); format: in vivo; set-up: IL-12 levels, test 1 / IL-12 levels, test 2 / IL-12 levels, average / IL-12 levels, Total: unit not given here; conditions: for IL-12/IL-4 (BALB/c): ratio calculated from Tables 1-6; for IL-12 levels, average / IL-12 levels, test 1 / IL-12 levels, test 2 / IL-12 levels, Total: serum; for IL-12 levels, Total: total over hours 0-72
Description: (§1) Five- to six-week-old female C57BL/6 mice and BALB/c mice were purchased from Taconic. Each glycolipid was stored at 1 mg/ml in 100% DMSO. Mice were injected intravenously with 1 μg of each glyocolipid diluted in 200 μL sterile phosphate buffered saline (PBS). At indicated time points, sera were collected from each animal, and concentrations of IFN-γ, IL-4, and IL-12 in the sera were evaluated by enzyme-linked immunosorbent assay (ELISA). Serum concentrations of IFN-γ, IL-4, and IL-12 were evaluated using an ELISA kit (eBioscience, San Diego, Calif.). Briefly, 96 well flat-bottom ELISA plates (NUNC) were coated with capture antibody according to the manufacture's recommendation and incubated overnight at 4° C. The plates were washed with PBS+0.05% Tween 20 (PBS-T), then incubated with manufacturer provided blocking solution for 1 hr at room temperature to block non-specific binding sites. After washing with PBS-T, sera diluted 1:10 was added to the wells and incubated for 2 hrs at room temperature. Plates were then incubated at room temperature for 1 hr with biotintylated detection antibody, washed, incubated with avidin conjugated to horse radish peroxidase (HRP) for 30 min at room temperature, washed, and finally incubated with tetramethylbenzidine substrate solution in the dark for 10 minutes at room temperature. The antibodies, avidin-HRP, and substrate solution were all diluted according to the manufacture's recommendation. Reactions were stopped with 2.0N sulfuric acid and the cytokine concentration in each well was determined by comparing the absorbance at 450 nm in each well to known standards. The levels of Th1- and Th2-type cytokines were determined in two different genetic backgrounds, i.e., in C57BL/6 mice and BALB/c mice. The following compounds were administered: A=compound (A-1 trans-conformer), B=compound (A-2), C=compound (A-3), D=compound (A-4), E=compound (A-5), Z=control (PBS alone), CRONY=α-C-GalCer, KRN=α-GalCer, GCK109 (A-1 trans-conformer), GCK151 (A-1 cis-conformer), GCK152 (A-7). The levels of cytokines were measured at 0, 2, 6, 12, 24, 48, and 72 hours after the compound administration. The levels of Th1-type cytokines IFN-γ and IL-12 are summarized in FIGS. 2A-C and 3A-C, respectively. Table 7 provides IFN-γ/IL-4 and IL-12/IL-4 ratios for various compounds, which can be used as indicators of their ability to selectively stimulate Th1-type immune responses.

[2] = tested on: IL-4; experiment: IL-4 levels in sera upon i.v. glycolipid administration to BALB/c mice (ELISA); format: in vivo; set-up: unit not given here; conditions: for IL-4 level, Total: total over hours 0-72
Description: as §1

[3] = tested on: melanoma metastases; conditions: in vivo administration; cited from earlier work
[4] = tested on: rodent malaria parasites, P. yoeli and P. berghei; conditions: in vivo administration; cited from earlier work

CCCCCCCCCCCCCC[C@@H](O)[C@@H](O)[C@H](CC[C@H]1O[C@H](CO)[C@H](O)[C@H](O)[C@H]1O)NC(=O)CCCCCCCCCCCCCCCCCCCOCCCCCC [A-4]
IL-12/IL-4 (BALB/c) [1]: 12
IL-12 levels, average ([1]; hour 0): 5
IL-12 levels, test 1 ([1]; hour 0): 5
IL-12 levels, test 2 ([1]; hour 0): 5
IL-12 levels, average ([1]; hour 2): 54.5
IL-12 levels, test 1 ([1]; hour 2): 57
IL-12 levels, test 2 ([1]; hour 2): 52
IL-12 levels, average ([1]; hour 6): 914.5
IL-12 levels, test 1 ([1]; hour 6): 730
IL-12 levels, test 2 ([1]; hour 6): 1099
IL-12 levels, average ([1]; hour 12): 4463
IL-12 levels, test 1 ([1]; hour 12): 3799
IL-12 levels, test 2 ([1]; hour 12): 5127
IL-12 levels, average ([1]; hour 24): 333.5
IL-12 levels, test 1 ([1]; hour 24): 396
IL-12 levels, test 2 ([1]; hour 24): 271
IL-12 levels, average ([1]; hour 48): 89
IL-12 levels, test 1 ([1]; hour 48): 58
IL-12 levels, test 2 ([1]; hour 48): 120
IL-12 levels, average ([1]; hour 72): 64.5
IL-12 levels, test 1 ([1]; hour 72): 78
IL-12 levels, test 2 ([1]; hour 72): 51
IL-12 levels, Total [1]: 5926
IL-4 level, average ([2]; hour 0): 27
IL-4 level, test 1 ([2]; hour 0): 27
IL-4 level, test 2 ([2]; hour 0): 27
IL-4 level, average ([2]; hour 2): 207
IL-4 level, test 1 ([2]; hour 2): 200
IL-4 level, test 2 ([2]; hour 2): 214
IL-4 level, average ([2]; hour 6): 79.5
IL-4 level, test 1 ([2]; hour 6): 85
IL-4 level, test 2 ([2]; hour 6): 74
IL-4 level, average ([2]; hour 12): 58
IL-4 level, test 1 ([2]; hour 12): 64
IL-4 level, test 2 ([2]; hour 12): 52
IL-4 level, average ([2]; hour 24): 67.5
IL-4 level, test 1 ([2]; hour 24): 50
IL-4 level, test 2 ([2]; hour 24): 85
IL-4 level, average ([2]; hour 48): 59
IL-4 level, test 1 ([2]; hour 48): 52
IL-4 level, test 2 ([2]; hour 48): 66
IL-4 level, average ([2]; hour 72): 12
IL-4 level, test 1 ([2]; hour 72): 12
IL-4 level, test 2 ([2]; hour 72): 12
IL-4 level, Total [2]: 511

CCCCCCCCCCCCCC[C@@H](O)[C@@H](O)[C@H](CC[C@H]1O[C@H](CO)[C@H](O)[C@H](O)[C@H]1O)NC(=O)CCCCCCCCCCCCCCCCCCCOCCCCC [A-5]
IL-12/IL-4 (BALB/c) [1]: 13
IL-12 levels, average ([1]; hour 0): 5
IL-12 levels, test 1 ([1]; hour 0): 5
IL-12 levels, test 2 ([1]; hour 0): 5
IL-12 levels, average ([1]; hour 2): 153.5
IL-12 levels, test 1 ([1]; hour 2): 74
IL-12 levels, test 2 ([1]; hour 2): 233
IL-12 levels, average ([1]; hour 6): 1668
IL-12 levels, test 1 ([1]; hour 6): 1587
IL-12 levels, test 2 ([1]; hour 6): 1749
IL-12 levels, average ([1]; hour 12): 2806.5
IL-12 levels, test 1 ([1]; hour 12): 2246
IL-12 levels, test 2 ([1]; hour 12): 3367
IL-12 levels, average ([1]; hour 24): 141
IL-12 levels, test 1 ([1]; hour 24): 110
IL-12 levels, test 2 ([1]; hour 24): 172
IL-12 levels, average ([1]; hour 48): 97
IL-12 levels, test 1 ([1]; hour 48): 0
IL-12 levels, test 2 ([1]; hour 48): 194
IL-12 levels, average ([1]; hour 72): 76.5
IL-12 levels, test 1 ([1]; hour 72): 153
IL-12 levels, test 2 ([1]; hour 72): 0
IL-12 levels, Total [1]: 4949
IL-4 level, average ([2]; hour 0): 27
IL-4 level, test 1 ([2]; hour 0): 27
IL-4 level, test 2 ([2]; hour 0): 27
IL-4 level, average ([2]; hour 2): 156
IL-4 level, test 1 ([2]; hour 2): 122
IL-4 level, test 2 ([2]; hour 2): 190
IL-4 level, average ([2]; hour 6): 67.5
IL-4 level, test 1 ([2]; hour 6): 60
IL-4 level, test 2 ([2]; hour 6): 75
IL-4 level, average ([2]; hour 12): 45.5
IL-4 level, test 1 ([2]; hour 12): 48
IL-4 level, test 2 ([2]; hour 12): 43
IL-4 level, average ([2]; hour 24): 41
IL-4 level, test 1 ([2]; hour 24): 39
IL-4 level, test 2 ([2]; hour 24): 43
IL-4 level, average ([2]; hour 48): 40
IL-4 level, test 1 ([2]; hour 48): 41
IL-4 level, test 2 ([2]; hour 48): 39
IL-4 level, average ([2]; hour 72): 3.4
IL-4 level, test 1 ([2]; hour 72): 3.4
IL-4 level, test 2 ([2]; hour 72): 3.4
IL-4 level, Total [2]: 382

CCCCCCCCCCCCCCCCCCCCCCCCCC(=O)N[C@@H](CC[C@H]1O[C@H](CO)[C@H](O)[C@H](O)[C@H]1O)[C@H](O)[C@H](O)CCCCCCCCCCCCCC [CRONY, reference compound]
IL-12/IL-4 (BALB/c) [1]: 7
IL-12 levels, average ([1]; hour 0): 5
IL-12 levels, test 1 ([1]; hour 0): 5
IL-12 levels, test 2 ([1]; hour 0): 5
IL-12 levels, average ([1]; hour 2): 66
IL-12 levels, test 1 ([1]; hour 2): 7
IL-12 levels, test 2 ([1]; hour 2): 125
IL-12 levels, average ([1]; hour 6): 1525
IL-12 levels, test 1 ([1]; hour 6): 1556
IL-12 levels, test 2 ([1]; hour 6): 1494
IL-12 levels, average ([1]; hour 12): 1888.5
IL-12 levels, test 1 ([1]; hour 12): 1717
IL-12 levels, test 2 ([1]; hour 12): 2060
IL-12 levels, average ([1]; hour 24): 210
IL-12 levels, test 1 ([1]; hour 24): 338
IL-12 levels, test 2 ([1]; hour 24): 82
IL-12 levels, average ([1]; hour 48): 238
IL-12 levels, test 1 ([1]; hour 48): 328
IL-12 levels, test 2 ([1]; hour 48): 148
IL-12 levels, average ([1]; hour 72): 91.5
IL-12 levels, test 1 ([1]; hour 72): 9
IL-12 levels, test 2 ([1]; hour 72): 174
IL-12 levels, Total [1]: 4025
improved activity against melanoma metastases (as compared to α-GalCer) [3]: 100 fold
IL-4 level, average ([2]; hour 0): 27
IL-4 level, test 1 ([2]; hour 0): 27
IL-4 level, test 2 ([2]; hour 0): 27
IL-4 level, average ([2]; hour 2): 262.5
IL-4 level, test 1 ([2]; hour 2): 264
IL-4 level, test 2 ([2]; hour 2): 261
IL-4 level, average ([2]; hour 6): 87
IL-4 level, test 1 ([2]; hour 6): 80
IL-4 level, test 2 ([2]; hour 6): 94
IL-4 level, average ([2]; hour 12): 49
IL-4 level, test 1 ([2]; hour 12): 45
IL-4 level, test 2 ([2]; hour 12): 53
IL-4 level, average ([2]; hour 24): 47.5
IL-4 level, test 1 ([2]; hour 24): 49
IL-4 level, test 2 ([2]; hour 24): 46
IL-4 level, average ([2]; hour 48): 46.5
IL-4 level, test 1 ([2]; hour 48): 45
IL-4 level, test 2 ([2]; hour 48): 48
IL-4 level, average ([2]; hour 72): 67
IL-4 level, test 1 ([2]; hour 72): 67
IL-4 level, test 2 ([2]; hour 72): 67
IL-4 level, Total [2]: 588
improved activity against malaria (as compared to α-GalCer) [4]: 1000 fold
